Assays:
[1] = system: D10; assay: NSG murine xenograft of D10 cells with adoptive cell transfer; assay type: in vivo, mouse; conditions: anti-TNF antibody injected (FIG. 4C, D)
Procedure: (§1) For xenograft studies, 1×10^6 D10 or BLM tumor cells were admixed with Matrigel (Corning) and injected subcutaneously into NSG-β2M^null mice (The Jackson Laboratory). Growth was monitored three times per week with calipers, and tumor size was calculated using the following formula: ½×length (mm)×width (mm). When tumors reached indicated sizes, mice were randomized over different treatment groups in a blinded fashion and were administered 5×10^6 human CD8 T cells, intravenously in the tail vein. In vivo persistence of T cells was stimulated by administering 100.000 U IL-2 (Proleukin, Novartis) intraperitoneally daily for three consecutive days. In selected experiments, birinapant (MedChem Express) was administered intraperitoneally once every three days. Birinipant was formulated at 3 mg/ml in 12.5% captisol (CyDex Pharmaceuticals) in water adjusted to pH 4 with hydrochloric acid. […] In selected experiments, the PD-1-blocking antibody nivolumab (Slotervaart Hospital) was given once weekly (5 mg/kg). For studies in immunocompetent mice, 3×10^5 D4M.3A cells were injected subcutaneously into C57BI/6J mice (Janvier) and tumor growth was monitored three times per week with calipers.

[2] = system: BLM; assay: NSG murine xenograft of BLM clones with ACT of MART-1 T cells; assay type: in vivo, mouse
Procedure: as §1, with “days.” for “days. Birinipant was formulated at 3 mg/ml in 12.5% captisol (CyDex Pharmaceuticals) in water adjusted to pH 4 with hydrochloric acid.”
(§2) To prepare lysates, snapfrozen tumor piecesd were weighed and lysed in RIPA buffer (50 mM TRIS pH 8.0, 150 mM NaCl, 1% Nonidet P40, 0.5% sodium deoxycholate, 0.1% SDS) supplemented with complete protease inhibitor cocktail (Roche Applied Science) and phosphatase inhibitors 10 mM NaF, 1 mM Na3VO4, 1 mM sodium pyrophosphate and 10 mM beta-glycerophosphate. Protein concentration was determined using a Bradford Protein Assay (Biorad).

[3] = system: BLM; assay: T cell cytotoxicity assay of BLM clones; assay type: cell-based, human; conditions: wildtype and TRAF2-deficient BLM clones in vitro (FIG. 11F)
Procedure: (§3) 1.2×10^5 tumor cells were seeded per well in 12-well culture plates (Greiner). CD8 T cells were admixed in serial dilutions (two-fold, starting at a 1:1 ratio). After 24 hours, T cells were washed away. After a further 4 days, plates were fixed and stained for 1 hour using a crystal violet solution containing 0.1% crystal violet (Sigma) and 50% methanol (Honeywell). For quantification, remaining crystal violet was solubilized in 10% acetic acid (Sigma). Absorbance of this solution was measured on an Infinite 200 Pro spectrophotometer (Tecan) at 595 nm. In select experiments, tumor viability data was assessed with CellTiter-Blue (Promega) following manufacturer's instructions. In indicated experiments, 1 uM of birinapant (Selleck Chemicals) in DMSO (Sigma) was added during co-cultures. For Incucyte (Incucyte Zoom, Essen Bioscience) experiments, 5×10^3 tumor cells were seeded per well in 96-well culture plates (Greiner). CD8 T cells were admixed in indicated ratios and a Caspase-3/7 dye (Essen Bioscience) was added. Growth of these co-cultures was followed for 48 hours. […] In indicated experiments, enavatuzumab (indicated concentrations; Creative Biolabs) in the presence or absence of protein G (50 μg/mL; Thermo Fisher Scientific) was added. To cluster enavatuzumab, cells were pretreated for 1 hour with enavatuzumab, then protein G was added for a further 7 hours. […]

[4] = system: SK-MEL-23; assay: Caspase-3/7 dye tumor cell apoptosis after MART-1 T cell attack, SK-MEL-23; assay type: cell-based, human; conditions: combined with TRAF2 inactivation; neutralizing TNF antibody (FIG. 6B)
Procedure: as §3

[5] = system: D10 melanoma cells; assay: T cell cytotoxicity assay with MART-1 T cells; assay type: cell-based, human
Procedure: 1.2×10^5 tumor cells were seeded per well in 12-well culture plates (Greiner). CD8 T cells were admixed in serial dilutions (two-fold, starting at a 1:1 ratio). After 24 hours, T cells were washed away. After a further 4 days, plates were fixed and stained for 1 hour using a crystal violet solution containing 0.1% crystal violet (Sigma) and 50% methanol (Honeywell). For quantification, remaining crystal violet was solubilized in 10% acetic acid (Sigma). Absorbance of this solution was measured on an Infinite 200 Pro spectrophotometer (Tecan) at 595 nm. In select experiments, tumor viability data was assessed with CellTiter-Blue (Promega) following manufacturer's instructions. In indicated experiments, 1 uM of birinapant (Selleck Chemicals) in DMSO (Sigma) was added during co-cultures. For Incucyte (Incucyte Zoom, Essen Bioscience) experiments, 5×10^3 tumor cells were seeded per well in 96-well culture plates (Greiner). CD8 T cells were admixed in indicated ratios and a Caspase-3/7 dye (Essen Bioscience) was added. Growth of these co-cultures was followed for 48 hours. […] In indicated experiments, enavatuzumab (indicated concentrations; Creative Biolabs) in the presence or absence of protein G (50 μg/mL; Thermo Fisher Scientific) was added. To cluster enavatuzumab, cells were pretreated for 1 hour with enavatuzumab, then protein G was added for a further 7 hours. Then, CD8 T cells were added to the tumor cells for a further 16 hours.

[6] = system: cIAP1/2; conditions: Benetatos et al., 2014; FIG. 11C; cited from earlier work
[7] = system: panel of 11 human melanoma and lung cancer cell lines; assay: MART-1 T cell cytotoxicity assay in a panel of tumor cell lines; assay type: cell-based
Procedure: as §3

[8] = system: TRAF2; assay: Western blot analysis of TRAF2 in treated D10 melanoma cells; assay type: cell-based, human
Procedure: 1.2×10^5 tumor cells were seeded per well in 12-well culture plates (Greiner). CD8 T cells were admixed in serial dilutions (two-fold, starting at a 1:1 ratio). After 24 hours, T cells were washed away. After a further 4 days, plates were fixed and stained for 1 hour using a crystal violet solution containing 0.1% crystal violet (Sigma) and 50% methanol (Honeywell). For quantification, remaining crystal violet was solubilized in 10% acetic acid (Sigma). Absorbance of this solution was measured on an Infinite 200 Pro spectrophotometer (Tecan) at 595 nm. In select experiments, tumor viability data was assessed with CellTiter-Blue (Promega) following manufacturer's instructions. In indicated experiments, 1 uM of birinapant (Selleck Chemicals) in DMSO (Sigma) was added during co-cultures. […]
as §2, with “Cells” for “To prepare lysates, snapfrozen tumor piecesd”, “were” for “were weighed and”, “(Biorad). […] Western blots were then incubated in SuperSignal West Dura Extended Duration Substrate (Thermo Scientific) and luminescence was captured on high performance autoradiography films (Amersham). […]” for “(Biorad).”

[9] = system: panel of 38 human tumor cell lines; conditions: cited from earlier work

## infliximab: TNF blocking antibody
[1]
  tumor control of TRAF2-deficient tumors after ACT with MART-1 T cells: this tumor control was dependent on TNF

## anti-PD-1: PD-1-blocking antibody nivolumab given once weekly (5 mg/kg)
[2]; anti-PD-1 added to TRAF2 KO plus birinapant (FIG. 6E)
  tumor control and overall survival: superior tumor control, improving overall survival
[2]; anti-PD-1 alone, wildtype BLM tumors (FIG. 6E)
  rejection of tumors: failed to affect rejection of VVT tumors
[2]; non-responding setting (FIG. 11I)
  intratumoral TNF after ICB: failed to see an upregulation of TNF after ICB

## CC[C@H](NC(=O)[C@H](C)NC)C(=O)N1C[C@@H](O)C[C@H]1Cc1c(-c2[nH]c3cc(F)ccc3c2C[C@@H]2C[C@H](O)CN2C(=O)[C@H](CC)NC(=O)[C@H](C)NC)[nH]c2cc(F)ccc12 [birinapant, (2S)—N-[(2S)-1-[(2R,4S)-2-[[6-fluoro-2-[6-fluoro-3-[[(2R,4S)-4-hydroxy-1-[(2S)-2-[[(2S) (methylamino)propanoyl]amino]butanoyl]pyrrolidin-2-yl]methyl]-1H-indol-2-yl]-1H-indolyl]methyl]-4-hydroxypyrrolidin-1-yl]-1-oxobutan-2-yl]-2-(methylamino)propanamide]
[3]
  response to T cells, TRAF2 deletion plus cIAP1/2 inhibition: synergistic response
[2]; TRAF2 KO tumors treated with birinapant (FIG. 6E)
  tumor control: better tumor control when compared to control tumors
[2]; TRAF2 genetic inactivation plus birinapant, ACT with MART-1 T cells (FIG. 6D)
  tumor volume and survival: induced both a reduction in tumor volume and extended survival
[4]
  sensitivity to T cell-derived TNF: induced a de novo sensitivity to T cell-derived TNF in SK-MEL-23
[5]; D10 cells sgCtrl or sgTRAF2, with or without birinapant (FIG. 11D)
  sensitivity to T cell killing in combination with TRAF2 inactivation: synergized with TRAF2 inactivation in inducing sensitivity to T cell killing
[6]
  degradation of BIRC2/3 protein products (cIAP1/2): known to degrade both BIRC2/3 protein products
[7]; MART-1 T cell cytotoxicity assay, p<0.001 (FIG. 6A)
  tumor cell survival, sgTRAF2+DMSO vs. sgTRAF2+Bir: significant for all cell lines
[7]; all tested tumor cell lines (FIG. 6A)
  sensitivity to T cell killing in combination with TRAF2 deletion: strong synergy between TRAF2 deletion and pharmaceutical targeting of cIAP1/2 in all tested tumor cell lines

B1: TWEAK: ligand of Fn14 (TNF-like weak inducer of apoptosis); recombinant TWEAK (Peprotech) (protein)
chain: SAPKGRKTRARRAIAAHYEVHPRPGQDGAQAGVDGTVSGWEEARINSSSPLRYNRQIGEFIVTRAGLYYLYCQVHFDEGKAVYLKLDLLVDGVLALRCLEEFSATAASSLGPQLRLCQVSGLLALRPGSSLRIRTLPWAHLKAAPFLTYFGLFQVH
[5]; 250 ng/mL TWEAK during exposure to MART-1 T cells (FIG. 3H)
  sensitization of tumor cells to T cell killing: sensitized tumor cells to T cell killing
[8]; D10 melanoma cells treated 8 hours with recombinant human TWEAK (FIG. 3G)
  degradation of TRAF2: led to the degradation of TRAF2

B2: enavatuzumab: agonistic anti-Fn14 antibody (Creative Biolabs) (antibody, chains of the INN, looked up, V domains shown)
VH: EVQLVESGGGLVQPGGSLRLSCAASGFTFSSYWMSWVRQAPGKGLEWVAEIRLKSDNYATHYAESVKGRFTISRDDSKNSLYLQMNSLRAEDTAVYYCTGYYADAMDYWGQGTLVTVSS
VL: DIQMTQSPSSLSASVGDRVTITCRASQSVSTSSYSYMHWYQQKPGKAPKLLIKYASNLESGVPSRFSGSGSGTDFTLTISSLQPEDFATYYCQHSWEIPYTFGGGTKVEIK
[5]; clustered with protein G, D10 and SK-MEL-147, 1:8 T cell:tumor cell ratio (FIG. 3J, 9C)
  sensitivity to T cell cytotoxicity: induced sensitivity to T cell cytotoxicity in two melanoma cell lines
[5]; neutralization with anti-TNF antibody (FIG. 9D)
  dependence of sensitization on T cell-derived TNF: dependent on T cell-derived TNF
[5]; wildtype or TRAF2-deficient tumor cells (FIG. 3J)
  dependence of sensitization on TRAF2: sensitization by enavatuzumab was dependent on TRAF2
[8]; D10 melanoma cells treated 8 hours, presence or absence of protein G (FIG. 3I)
  degradation of TRAF2: caused degradation of TRAF2, but only upon receptor clustering by the addition of protein G

B3: Fn14 agonistic antibody: humanized anti-Fn14 agonistic antibody described by Michaelson et al. (2011) (antibody, chains of the INN, looked up, V domains shown)
VH: B2 VH
VL: B2 VL
[9]
  cell lines with growth inhibition: approximately 50%

Reference: patent US11629179B2, “TWEAK-receptor agonists for use in combination with immunotherapy of a cancer” (Stichting Het Nederlands Kanker Instituut - Antoni van …, priority 2018, dated 2023)
